Measured values as given in patent US12077797B2, “Oligopeptide with lipid-lowering activity, preparation method and application thereof” (Nanjing University of Finance and Economics, priority 2022, dated 2024).
Where a SMILES comes first, the peptide text is derived from it.

Test system: HepG2 cells
Assay: MTT assay, cell proliferation viability of normal HepG2 cells
Assay type: cell-based
Settings: 256 μM, FIG. 5A
Experimental: i) MTT (also referred to as thiazole blue) assay is used to detect the effects of various components (LPH-I, LPH-II and LPH-III) on the cell proliferation viability of normal HepG2 cells: HepG2 cells in logarithmic growth period are taken and prepared into a cell suspension of 4×10^5 cells/mL with the high glucose DMEM medium containing 10% FBS. Sample wells are set in a 96-well plate, and 100 μL of cell suspension is added to each sample well, and the cells are cultured in a cell incubator for 24 hours to adhere to the wall. After removing the culture medium from the sample wells, the components LPH-I (>10 kDa), LPH-II (3-10 kDa) and LPH-III (<3 kDa) are respectively dissolved in the high glucose DMEM culture medium containing 10% FBS to prepare an oligopeptide culture medium with a concentration of 150 μg/mL, and then added to each sample well, with a volume of 100 μL per well. A blank well is set, no cells are present compared with the sample wells, and 100 μL PBS phosphate buffer (1×, pH 7.2) is used to replace the oligopeptide culture medium. A control well is set with cells compared with the sample wells, and 100 μL PBS phosphate buffer (1×, pH 7.2) is used to replace the oligopeptide culture medium. […] The absorbance is measured at 570 nanometers (nm) wavelength in a microplate reader. […]

SMILES: C[C@H](N)C(=O)N[C@@H](Cc1ccc(O)cc1)C(=O)N1CCC[C@H]1C(=O)N[C@@H](Cc1ccccc1)C(=O)O [AYPF] (H-AYPF-OH; N-terminus and C-terminus assumed)
- effect on the cell viability: a certain effect
